Source: ChEMBL document CHEMBL1150256, “Kahalalides V-Y isolated from a Hawaiian collection of the sacoglossan mollusk Elysia rufescens” (2008)
The source made the active and inactive calls. The calls are words filed in the database; no cut-off is given here.

Experiments:
Mus musculus = assay: Antidepressant activity in Swiss Webster mouse at 0 to10 mg/kg, ip by forced swim test; assay type: functional, organism-based
PC-3 = assay: Growth inhibition of human PC3 cells; assay type: functional
DU-145 = assay: Growth inhibition of human DU145 cells; assay type: functional

Row | SMILES | Activity (Mus musculus) | growth inhibition (GI) (PC-3) [%] | growth inhibition (GI) (DU-145) [%]
1 | CC(C)CCC[C@H]1CC(=O)N[C@H](Cc2c[nH]c3ccccc23)C(=O)N2CCC[C@H]2C(=O)N[C@@H](CCCNC(=N)N)C(=O)O1 | inactive |  | 
2 | C/C=C1\NC(=O)[C@H](Cc2ccccc2)NC(=O)[C@@H](C(C)C)NC(=O)[C@@H]([C@H](C)CC)NC(=O)[C@H](NC(=O)[C@H](NC(=O)[C@H](CCCN)NC(=O)[C@H]2CCCN2C(=O)[C@H](NC(=O)[C@@H](NC(=O)[C@@H](NC(=O)[C@H](NC(=O)CCCC(C)C)C(C)C)[C@@H](C)O)C(C)C)C(C)C)[C@H](C)CC)[C@H](C)OC(=O)[C@H](C(C)C)NC1=O [KAHALALIDE F] |  | 40 | 40
